# Literature values as cited in patent US20230048954A1, “COMPOSITIONS FOR REMOVING NECROTIC OR INFECTED TISSUES FROM BODY SURFACE LESIONS” (priority 2020, published 2023).
# Conditions: at a temperature of 25° C.
row,SMILES,pKa
1,CCCS(=O)(=O)O [1-Propanesulfonic acid],−0.86
2,O=[N+]([O-])O [Nitric],−1.4
